Assay results as given in patent publication US20240092835A1, “NOVEL PEPTIDES CAPABLE OF ALTERING NK CELL ACTIVITY” (Massachusetts Institute of Technology, priority 2022, published 2024).

Assays:
[1] = test system: NKG2A−/NKG2C+ NK cells; assay: NK cell activation markers in NKG2A-/NKG2C+ NK cells incubated with peptide and K562 expressing HLA-E (activation); type: cell-based, human; settings: for percentage of CCL3+ NK cells / percentage of CD107+ NK cells / percentage of IFNG+ NK cells / percentage of TNF+ NK cells: NKG2A-/NKG2C+ NK cells, K562/HLA-E
Method in brief: (§1)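 K562 + HLA-E, pulsed with human/CMV proteome peptides → incubated with sorted NK subsets → surface marker staining, % positive cells. Increase = activation; decrease = inhibition.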

[2] = test system: NKG2A−/NKG2C− NK cells; assay: NK cell activation markers in control NKG2A-/NKG2C- NK cells incubated with peptide and K562 expressing HLA-E; type: cell-based, human
Method in brief: as §1

[3] = test system: NKG2A−/NKG2C+ NK cells; assay: NKG2A-/NKG2C+ NK cell activation with peptide and RMA-S cells expressing HLA-E; type: cell-based; settings: RMA-S cells expressing HLA-E
Experimental: An antigen processing-defective lymphoma cell line (RMA-S), with a low-level expression of HLA-E, were incubated with the novel peptides to determine the inhibitory strength on NKG2A−/NKG2C+NK cells relative to positive control sequences with differential effects ([…] (SEQ ID NO: 19)/VMAPRTLFL (SEQ ID NO: 18)). The effects of the peptides on NK cell inhibition were determined by measuring four markers of NK cell activation (CD107a, IFNG, TNF, CCL3) in NKG2A−/NKG2C+NK cells (FIGS. 2A-2D). Activation was indicated by an increase in percent cells positive for cell surface markers.

[4] = target: T1, HLA-E (Homo sapiens, UniProt P13747); assay: HLA-E surface stabilization assay with RMA-S/HLA-E cells; type: cell-based; settings: 30 μM peptide, 16 hours; for HLA-E surface expression stability (GeoMFI): anti-HLA-E antibody
T1 construct: expressed in transfected cells; host or cells: RMA-S/HLA-E cells (antigen processing-defective lymphoma cell line)
T1 sequence (P13747 22-358): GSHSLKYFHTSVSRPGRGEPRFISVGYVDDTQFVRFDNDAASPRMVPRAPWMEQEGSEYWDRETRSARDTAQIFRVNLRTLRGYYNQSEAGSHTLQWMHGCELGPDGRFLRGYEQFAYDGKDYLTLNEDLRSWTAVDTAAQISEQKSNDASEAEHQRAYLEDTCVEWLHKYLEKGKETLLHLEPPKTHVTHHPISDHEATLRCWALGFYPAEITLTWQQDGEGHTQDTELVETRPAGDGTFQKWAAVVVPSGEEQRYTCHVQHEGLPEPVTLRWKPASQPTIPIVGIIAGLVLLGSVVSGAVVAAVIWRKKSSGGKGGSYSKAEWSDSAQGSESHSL
T1 sequence (P61769 21-119 partner): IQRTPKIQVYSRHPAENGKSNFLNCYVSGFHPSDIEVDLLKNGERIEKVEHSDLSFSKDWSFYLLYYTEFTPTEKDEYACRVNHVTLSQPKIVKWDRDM
Experimental: HLA-E surface expression was assessed by measuring geometric mean fluorescence intensity (GeoMFI) in RMA-S cells following immunofluorescence staining with an anti-HLA-E antibody (Table 14). Increased GeoMFI was indicative of increased HLA-E surface expression stability following novel peptide exposures (FIG. 3).

[5] = test system: NKG2A+/NKG2C− NK cells; assay: NK cell activation markers in NKG2A+/NKG2C- NK cells incubated with peptide and K562 expressing HLA-E (inhibition); type: cell-based, human; settings: for percentage of CCL3+ NK cells / percentage of CD107a+ NK cells / percentage of IFNG+ NK cells / percentage of TNF+ NK cells: NKG2A+/NKG2C- NK cells, K562/HLA-E
Method in brief: as §1

[6] = K562 expressing HLA-E, CD107a, IFNG, TNF, CCL3

With “NMPARTVLF [human14, peptide MTREX 490-498 derived from the human proteome]” the “effect on NKG2A−/NKG2C+ NK cell activation (in words)” value [1, 6] was “strong inhibitory and activating effects”, the “percentage of CCL3+ NK cells” value ([1]; Trial 1) was 70.6% and the “percentage of CD107+ NK cells” value ([1]; Trial 1) was 61.3%. The “percentage of IFNG+ NK cells” value ([1]; Trial 1) was 45.6%, the “percentage of TNF+ NK cells” value ([1]; Trial 1) was 31.9% and the “percentage of CCL3+ NK cells” value ([1]; Trial 2) was 87.5%. The “percentage of CD107+ NK cells” value ([1]; Trial 2) was 83.1%, the “percentage of IFNG+ NK cells” value ([1]; Trial 2) was 72.7% and the “percentage of TNF+ NK cells” value ([1]; Trial 2) was 65.1%. The “percentage of CCL3+ NK cells” value ([1]; Trial 3) was 82.5%, the “percentage of CD107+ NK cells” value ([1]; Trial 3) was 85% and the “percentage of IFNG+ NK cells” value ([1]; Trial 3) was 74.2%. For the same sequence, the “percentage of TNF+ NK cells” value ([1]; Trial 3) was 65%, the “percentage of CCL3+ NK cells” value ([1]; Trial 4) was 61.1% and the “percentage of CD107+ NK cells” value ([1]; Trial 4) was 59.1%. The “percentage of IFNG+ NK cells” value ([1]; Trial 4) was 47.5%, the “percentage of TNF+ NK cells” value ([1]; Trial 4) was 40% and the “percentage of CCL3+ NK cells” value ([1]; Trial 5) was 71.8%. The “percentage of CD107+ NK cells” value ([1]; Trial 5) was 70.5%, the “percentage of IFNG+ NK cells” value ([1]; Trial 5) was 61.9% and the “percentage of TNF+ NK cells” value ([1]; Trial 5) was 57.9%. For the same sequence, the “percentage of CCL3+ NK cells” value ([1]; Trial 6) was 52.1%, the “percentage of CD107+ NK cells” value ([1]; Trial 6) was 44.3% and the “percentage of IFNG+ NK cells” value ([1]; Trial 6) was 30.5%. The “percentage of TNF+ NK cells” value ([1]; Trial 6) was 21.8%, the “percentage CCL3+ NK cells” value ([2]; Trial 1) was 29.3% and the “percentage CD107+ NK cells” value ([2]; Trial 1) was 20.9%. The “percentage TNF+ NK cells” value ([2]; Trial 1) was 2.61%, the “percentage of IFNG+ NK cells” value ([2]; Trial 1) was 12.1% and the “percentage CCL3+ NK cells” value ([2]; Trial 2) was 54.7%. The “percentage CD107+ NK cells” value ([2]; Trial 2) was 31.4%, the “percentage TNF+ NK cells” value ([2]; Trial 2) was 9.25% and the “percentage of IFNG+ NK cells” value ([2]; Trial 2) was 27.7%. For the same sequence, the “percentage CCL3+ NK cells” value ([2]; Trial 3) was 44%, the “percentage CD107+ NK cells” value ([2]; Trial 3) was 43.7% and the “percentage TNF+ NK cells” value ([2]; Trial 3) was 17.1%. The “percentage of IFNG+ NK cells” value ([2]; Trial 3) was 36.5%, the “percentage CCL3+ NK cells” value ([2]; Trial 4) was 29.2% and the “percentage CD107+ NK cells” value ([2]; Trial 4) was 25.6%. For the same sequence, the “percentage TNF+ NK cells” value ([2]; Trial 4) was 8.96%, the “percentage of IFNG+ NK cells” value ([2]; Trial 4) was 17.5% and the “percentage CCL3+ NK cells” value ([2]; Trial 5) was 26.9%. For the same sequence, the “percentage CD107+ NK cells” value ([2]; Trial 5) was 21.8%, the “percentage TNF+ NK cells” value ([2]; Trial 5) was 7.19% and the “percentage of IFNG+ NK cells” value ([2]; Trial 5) was 16.7%. The “percentage CCL3+ NK cells” value ([2]; Trial 6) was 20.9%, the “percentage CD107+ NK cells” value ([2]; Trial 6) was 16.7% and the “percentage TNF+ NK cells” value ([2]; Trial 6) was 2.97%. The “percentage of IFNG+ NK cells” value ([2]; Trial 6) was 7.36%, the “NKG2A−/NKG2C+ NK cell activation relative to positive control peptides (in words)” value [3] was “decreased NK cell activation relative to the positive control peptides” and the “HLA-E surface expression stability (GeoMFI)” value ([4]; Trial 1) was 1304 GeoMFI. The “HLA-E surface expression stability (GeoMFI)” value ([4]; Trial 2) was 1364 GeoMFI, the “HLA-E surface expression stability (GeoMFI)” value ([4]; Trial 3) was 1005 GeoMFI and the “HLA-E surface expression stability (GeoMFI)” value ([4]; Trial 4) was 1738 GeoMFI. For the same sequence, the “HLA-E surface expression stabilization strength, approximate GeoMFI” value ([4]; approximate value) was “approximately 1×10^3 GeoMFI”, the “effect on NKG2A+/NKG2C− NK cell inhibition (in words)” value [5, 6] was “strong inhibitory” and the “percentage of CCL3+ NK cells” value ([5]; Trial 1) was 3.55%. For the same sequence, the “percentage of CD107a+ NK cells” value ([5]; Trial 1) was 1.54%, the “percentage of IFNG+ NK cells” value ([5]; Trial 1) was 0.3% and the “percentage of TNF+ NK cells” value ([5]; Trial 1) was 0.12%. For the same sequence, the “percentage of CCL3+ NK cells” value ([5]; Trial 2) was 6.94%, the “percentage of CD107a+ NK cells” value ([5]; Trial 2) was 2.38% and the “percentage of IFNG+ NK cells” value ([5]; Trial 2) was 0.79%. The “percentage of TNF+ NK cells” value ([5]; Trial 2) was 0.31%, the “percentage of CCL3+ NK cells” value ([5]; Trial 3) was 6.08% and the “percentage of CD107a+ NK cells” value ([5]; Trial 3) was 3.66%. The “percentage of IFNG+ NK cells” value ([5]; Trial 3) was 2.62%, the “percentage of TNF+ NK cells” value ([5]; Trial 3) was 1.09% and the “percentage of CCL3+ NK cells” value ([5]; Trial 4) was 3.51%. For the same sequence, the “percentage of CD107a+ NK cells” value ([5]; Trial 4) was 2.52%, the “percentage of IFNG+ NK cells” value ([5]; Trial 4) was 0.83% and the “percentage of TNF+ NK cells” value ([5]; Trial 4) was 0.55%. For the same sequence, the “percentage of CCL3+ NK cells” value ([5]; Trial 5) was 17%, the “percentage of CD107a+ NK cells” value ([5]; Trial 5) was 4.05% and the “percentage of IFNG+ NK cells” value ([5]; Trial 5) was 2.12%. The “percentage of TNF+ NK cells” value ([5]; Trial 5) was 0.89%, the “percentage of CCL3+ NK cells” value ([5]; Trial 6) was 2.66% and the “percentage of CD107a+ NK cells” value ([5]; Trial 6) was 1.16%. The “percentage of IFNG+ NK cells” value ([5]; Trial 6) was 0.43% and the “percentage of TNF+ NK cells” value ([5]; Trial 6) was 0.14%.
